Results on 27 compounds are retold here after ChEMBL document CHEMBL3751784, “Synthesis of novel 1-substituted triazole linked 1,2-benzothiazine 1,1-dioxido propenone derivatives as potent anti-inflammatory agents and inhibitors of monocyte-to-macrophage differentiation” (2015).

Activity calls are given as the source filed them. No cut-off for these calls is given here.

Test [1] can be described thus: (§1) Antiinflammatory activity in human THP1 cells assessed as inhibition of PMA-induced TNFalpha secretion at 10 uM preincubated for 2 hrs followed by PMA addition measured after 48 hrs by ELISA. Conditions: THP-1. The class given is functional. For orientation: In an ELISA, binding on a coated surface is turned into a signal by an enzyme label.
A short description of test [2]: Antiinflammatory activity in human THP1 cells assessed as inhibition of PMA-induced IL-1beta secretion at 10 uM preincubated for 2 hrs followed by PMA addition measured after 48 hrs by ELISA. Format: functional. Conditions: THP-1.
The nature of test [3]: (§2) Antiinflammatory activity in human THP1 cells assessed as inhibition of PMA-induced MCP-1 secretion at 10 uM preincubated for 2 hrs followed by PMA addition measured after 48 hrs by ELISA. Format: functional. Conditions: THP-1.
In test [4] the test system is THP-1. Described as §1. The class given is functional.
A short description of test [5]: Cytotoxicity against human THP1 cells assessed as cell viability at 20 uM after 48 hrs by tryphan blue dye exclusion assay relative to control. Format: functional. Conditions: THP-1, 48 h, read-out: Activity.
Test [6] deals with THP-1. The test is described as §2. The class given is functional.
Test [7] has as its system THP-1. As to the kind of experiment: Antiinflammatory activity in human THP1 cells assessed as inhibition of PMA-induced COX2 mRNA level preincubated for 2 hrs followed by PMA addition measured after 48 hrs by RT-PCR analysis. The class given is functional, cell-based.
The test system of test [8] is THP-1. Kind of test: Antiinflammatory activity in human THP1 cells assessed as inhibition of PMA-induced TNFalpha secretion preincubated for 2 hrs followed by PMA addition measured after 48 hrs by ELISA. Format: functional, cell-based.
For test [9], the system named is THP-1. As to the kind of experiment: Antiinflammatory activity in human THP1 cells assessed as inhibition of PMA-induced IL-1beta secretion preincubated for 2 hrs followed by PMA addition measured after 48 hrs by ELISA. Format: functional, cell-based.
Test [10] relates to THP-1. As to the kind of experiment: Antiinflammatory activity in human THP1 cells assessed as inhibition of PMA-induced MCP-1 secretion preincubated for 2 hrs followed by PMA addition measured after 48 hrs by ELISA. Format: functional, cell-based.
Test [11] deals with THP-1. As to the kind of experiment: Inhibition of PMA-induced monocyte to macrophage differentiation in human THP1 cells assessed as reduction in cell adherence at 20 uM preincubated for 2 hrs followed by PMA addition measured after 48 hrs by phase contrast microscopic analysis. The class given is functional, cell-based.

In general, inhibition refers to the drop in the measured response relative to a control, in per cent. For `CN1C(C(=O)Nc2ccccn2)=C(O)c2ccccc2S1(=O)=O` [PIROXICAM], the values for the inhibition at 10 µM in test [1], in test [2] and in [3] were 25.8%, 21.8% and 11.4%, respectively.

As to `CN1C(C(=O)/C=C/c2cn(-c3ccc([N+](=O)[O-])cc3)nn2)=C(O)c2ccccc2S1(=O)=O`, in test [4], the inhibition result was “inactive”. Further, the inhibition at 10 µM in [2] is 36.5%; in [3], 31.5%. Moreover, the viability at 20 µM in test [5] was found to be 93%.

Regarding `CN1C(C(=O)/C=C/c2cn(-c3ccccc3F)nn2)=C(O)c2ccccc2S1(=O)=O`, the inhibition result in [4] and in [6] was “inactive” throughout. In addition, the inhibition at 10 µM in test [2] amounted to 40.2%. Moreover, the viability at 20 µM in test [5] was 96.1%.

As to `Cc1ccc(-n2cc(/C=C/C(=O)C3=C(O)c4ccccc4S(=O)(=O)N3C)nn2)cc1`, the inhibition entry in test [4] was “inactive”. Moreover, the inhibition at 10 µM in [2] came out at 50.2%; in test [3] it was 45.2%. Moreover, the viability at 20 µM in test [5] came to 94.3%.

Consider `CN1C(C(=O)/C=C/c2cn(CC(=O)Nc3c(F)cccc3F)nn2)=C(O)c2ccccc2S1(=O)=O`, for which the results for the inhibition at 10 µM in test [1], in [2] and in test [3] were 31.3%, 46.3% and 41.3%, respectively. Further, in test [5], the viability at 20 µM was determined as 95.6%.

With `CN1C(C(=O)/C=C/c2cn(CC(=O)Nc3ccc(F)cc3Br)nn2)=C(O)c2ccccc2S1(=O)=O`, the inhibition at 10 µM was 59.8% in [1], 63.8% in [2] and 65.4% in [3]. Further, the viability at 20 µM in test [5] was determined as 93.6%.

`CCCCCCCCn1cc(/C=C/C(=O)C2=C(O)c3ccccc3S(=O)(=O)N2C)nn1`: the inhibition at 10 µM turned out to be 2.9% in test [1], 64.7% in test [2] and 40.9% in test [3]. For the same compound, the viability at 20 µM in [5] turned out to be 92.3%.

As for `CN1C(C(=O)/C=C/c2cn(-c3cccc([N+](=O)[O-])c3)nn2)=C(O)c2ccccc2S1(=O)=O`, the inhibition entry in [4] was “inactive”. Also, the inhibition at 10 µM in [2] was 25.6%; in [3] it was 30.7%. Besides, the viability at 20 µM in test [5] is 92.6%.

With `CN1C(C(=O)/C=C/c2cn(-c3ccc(F)c(Cl)c3)nn2)=C(O)c2ccccc2S1(=O)=O`, the inhibition result in test [4] and in test [6] was “inactive” in each case. The inhibition at 10 µM in test [2] is 16.3%. Further, in test [5], the viability at 20 µM amounted to 94.3%.

For the compound `CN1C(C(=O)/C=C/c2cn(CC(=O)Nc3ccc(Cl)c(C(F)(F)F)c3)nn2)=C(O)c2ccccc2S1(=O)=O`, the inhibition at 10 µM in test [1] was 93.2%; in [2], 93.6%; in [3], 88.4%. Moreover, in test [5], the viability at 20 µM was found to be 94.3%. Further, the inhibition entry in [7] was “Active”. Besides, the inhibition result in [8], in [9] and in [10] was “Dose-dependent effect” each time. Further, the inhibition entry in test [11] was “inactive”.

Turning to `CN1C(C(=O)/C=C/c2cn(-c3ccccc3Br)nn2)=C(O)c2ccccc2S1(=O)=O`, the inhibition at 10 µM in test [1] amounted to 13.7%; in test [2] it was 45.9%; in test [3] it was 16.2%. For the same compound, the viability at 20 µM in test [5] came to 94.4%.

Take `CN1C(C(=O)/C=C/c2cn(-c3ccc(F)cc3F)nn2)=C(O)c2ccccc2S1(=O)=O`: the inhibition at 10 µM in test [1] worked out at 11.2%; in test [2], 47.7%; in test [3], 29.6%. In addition, in test [5], the viability at 20 µM was found to be 96.2%.

As for `CN1C(C(=O)/C=C/c2cn(CC(=O)Nc3ccc(F)cc3)nn2)=C(O)c2ccccc2S1(=O)=O`, the figures for the inhibition at 10 µM in [1], in test [2] and in test [3] were 73.4%, 42.4% and 41.4%, respectively. Besides, the viability at 20 µM in [5] came out at 92.5%.

Consider `CN1C(C(=O)/C=C/c2cn(CC(=O)NC3CCCCC3)nn2)=C(O)c2ccccc2S1(=O)=O`, for which the inhibition at 10 µM in [1] came out at 39.7%; in test [2], 47.7%; in [3], 56.1%. For the same compound, in test [5], the viability at 20 µM worked out at 95.2%.

On to `COc1ccc(-n2cc(/C=C/C(=O)C3=C(O)c4ccccc4S(=O)(=O)N3C)nn2)cc1`, for which the inhibition result in [4] is “inactive”. Moreover, the figures for the inhibition at 10 µM in [2] and in test [3] were 53.9% and 58.9%, respectively. In addition, the viability at 20 µM in test [5] is 94.4%.

Consider `COc1ccc(NC(=O)Cn2cc(/C=C/C(=O)C3=C(O)c4ccccc4S(=O)(=O)N3C)nn2)cc1`, for which the inhibition at 10 µM in test [1] came to 62.9%; in [2], 49.8%; in test [3], 64.8%. Moreover, the viability at 20 µM in [5] came out at 94.5%.

For `CN1C(C(=O)/C=C/c2cn(CC(=O)Nc3ccc(C(F)(F)F)cc3)nn2)=C(O)c2ccccc2S1(=O)=O`, the values for the inhibition at 10 µM in test [1], in test [2] and in test [3] were 94.2%, 91.1% and 81.1%, respectively. The viability at 20 µM in test [5] was determined as 95.1%. In test [7], the inhibition entry was “Active”. For the same compound, the inhibition entry in [8], in [9] and in test [10] was “Dose-dependent effect” each time. Besides, the inhibition entry in test [11] is “inactive”.

`CN1C(C(=O)/C=C/c2cn(CC(=O)Nc3cccc(F)c3)nn2)=C(O)c2ccccc2S1(=O)=O`: the inhibition at 10 µM in [1] was found to be 70.7%; in test [2], 69.5%; in [3], 48.2%. Besides, the viability at 20 µM in test [5] was 96.5%. The inhibition entry in test [7] was “Active”. Also, the inhibition entry in [8], in test [9] and in test [10] was “Dose-dependent effect” throughout. Also, the inhibition entry in test [11] is “inactive”.

With `Cc1ccc(-c2cc(C(F)(F)F)nn2-c2ccc(S(N)(=O)=O)cc2)cc1` [CELECOXIB], the values for the inhibition at 10 µM in [1], in [2] and in test [3] were 37.4%, 31.1% and 20.1%, respectively.

For the compound `COc1cccc(-n2cc(/C=C/C(=O)C3=C(O)c4ccccc4S(=O)(=O)N3C)nn2)c1`, the inhibition result in [4] and in test [6] was “inactive” in each case. Moreover, the inhibition at 10 µM in test [2] was 42.6%. Moreover, the viability at 20 µM in test [5] came out at 94.2%.

With `CN1C(C(=O)/C=C/c2cn(CC(=O)Nc3ccccc3)nn2)=C(O)c2ccccc2S1(=O)=O`, the inhibition at 10 µM in [1] stood at 33.3%; in [2], 49.3%; in test [3] it was 76.7%. In addition, the viability at 20 µM in [5] was found to be 96.2%.

For `CN1C(C(=O)/C=C/c2cn(-c3ccc(F)cc3)nn2)=C(O)c2ccccc2S1(=O)=O`, the inhibition entry in [4] is “inactive”. Moreover, the results for the inhibition at 10 µM in test [2] and in test [3] were 43.9% and 58.9%, respectively. In addition, in [5], the viability at 20 µM is 95.3%.

Turning to `CN1C(C(=O)/C=C/c2cn(-c3ccccc3)nn2)=C(O)c2ccccc2S1(=O)=O`, the figures for the inhibition at 10 µM in test [1], in [2] and in test [3] were 24%, 56.9% and 31.9%, respectively. Also, in test [5], the viability at 20 µM amounted to 94.2%.

As to `CN1C(C(=O)/C=C/c2cn(-c3cc([N+](=O)[O-])ccc3Cl)nn2)=C(O)c2ccccc2S1(=O)=O`, the inhibition at 10 µM in [1] was 52.5%; in test [2], 61.8%; in test [3], 67.1%. For the same compound, in [5], the viability at 20 µM stood at 94.3%.

With `CN1C(C(=O)/C=C/c2cn(-c3ccc(C(F)(F)F)cc3)nn2)=C(O)c2ccccc2S1(=O)=O`, in [4], the inhibition result was “inactive”. Further, the inhibition at 10 µM in test [2] is 17.7%; in test [3], 12.7%. In addition, the viability at 20 µM in [5] amounted to 96.6%.

`CN1C(C(=O)/C=C/c2cn(-c3cccc(Cl)c3)nn2)=C(O)c2ccccc2S1(=O)=O`: in test [4], the inhibition entry is “inactive”. Also, the inhibition at 10 µM amounted to 37.3% in test [2] and 5.4% in test [3]. Besides, in test [5], the viability at 20 µM stood at 96%.

For the compound `CN1C(C(=O)/C=C/c2cn(-c3cccc(C(F)(F)F)c3)nn2)=C(O)c2ccccc2S1(=O)=O`, the inhibition entry in [4] and in [6] was “inactive” throughout. Also, the inhibition at 10 µM in test [2] turned out to be 23.9%. Further, the viability at 20 µM in test [5] stood at 93.8%.
